Test results as given in publication PMC12534982 (Journal of Experimental & Clinical Cancer Research : CR, 2025).

How the values were obtained:
[1] = test system: colorectal cancer cell lines; test: DNA fiber assays; assay type: cell-based, human
Procedure: Cancer cells were pulse-labeled with 20 µM iododeoxyuridine (IdU) in the dark at 37 °C for 20 min. Subsequently, the cells were washed twice with PBS and then pulse-labeled with 200 µM chlorodeoxyuridine (CldU) in the presence or absence of NK-A 17E-233I (25 µM) in the dark at 37 °C for 1 h. To assess fork restart in cancer cells following treatment, cells were pulse-labeled with 20 µM IdU for 10 min, after which NK-A 17E-233I (25 µM) was either added or no treatment was administered, followed by an additional 1 h of incubation. The cells were then washed twice with PBS and pulse-labeled with 200 µM CldU for 30 min. Following the labeling procedure, cells were washed twice with PBS, scrapped into PBS containing 0.1% Bovine Serum Albumin (BSA), pelleted, and resuspended in PBS with 0.1% BSA at a final concentration of 1.5 × 10^3 cells/µL. A volume of 2.5 µL of the cell suspension was spotted onto a positively charged slide and lysed with 7.5 µL of a spreading buffer (200 mM Tris–HCl, pH 7.5; 50 mM EDTA; 0.5% SDS) at room temperature for 8 min. The slides were then tilted at 45 ° to facilitate DNA spreading. After air-drying, the slides were fixed with ice-cold methanol/acetic acid (3:1) for 5 min, air-dried again, and stored at 4 °C.
The slides were rehydrated with PBS, denatured with 2.5 M HCl for 1 h, washed twice with PBS, and blocked with a blocking buffer (3% BSA; 0.1% Triton X-100 in PBS) for 40 min. Subsequently, the slides were incubated with a primary antibody mixture, including mouse anti-5-Bromo-2'-Deoxyuridine (anti-BrdU) recognizing IdU (#347580; Becton Dickinson, dilution 1:250) and rat anti-BrdU recognizing CldU (#6326; Abcam, dilution 1:250), diluted in a blocking buffer within a dark humid chamber at room temperature for 2.5 h.
For silencing, siNT (non-target, D-001810–10-20 On-TARGET plus Non-targeting pool, Dharmacon) (Horizon Discovery, Waterbeach, UK) and siPOLD2 (Smart pool, ON-TARGETplus Human POLD2 (5425) siRNA oligos directed against human POLD2), were used to transfect cells using RNAiMax Lipofectamine Reagent Mix (Life Technologies) according to the manufacturer’s protocol. 48 h post-transfection, the cells were harvested to evaluate the efficiency of gene silencing, which was estimated to be approximately 90% based on western blot analysis, for further experimental applications.
Afterwards, the slides were washed three times with PBS for 5 min each and incubated with secondary antibodies, anti-mouse Alexa Fluor 594 and anti-rat Alexa Fluor 488 (#A11005 and #A11006, respectively; Invitrogen, dilution 1:250), in a blocking buffer at room temperature in a dark humid chamber for 1 h. After three additional washes with PBS and air-drying, the slides were mounted with ProLong Gold Antifade Reagent (#P36930; Invitrogen) and stored at 4 °C until imaging. Images were acquired using an AF6000 Leica Fluorescence microscope equipped with an HCX PL APO 63x (NA = 1.4) oil objective. ImageJ/Fiji software was utilized to measure the fibers with the segmented line tool.

[2] = test system: cell lines from other cancer types (osteosarcoma, breast, lung); test: Cell morphology studies (brightfield); assay type: cell-based, human; conditions: 25 µM, 48 h
Source text: Brightfield images were captured using a Leica DMi8 microscope with a 10X or 20X objective (HC PL FLUOTAR 10X/0.45 or 20X/0.75) equipped with a Leica DFC9000GT camera, and processed with a Leica Application Suite X (LAS X) Life Science Microscope Software (v3.5.5.19976, RRID:SCR_013673).

colorectal cancer cells [3] = test: Oxidative stress (CellROX Deep Red); assay type: cell-based, human
Procedure: Cancer cells (1 × 10^3) were cultured in 8-well collagen IV Ibidi chamber slides and treated with DMSO or NK-A 17E-233I (25 µM) for 24 h. The media was replaced with fresh media containing 100 nM MitoTracker Red dye to measure ΔΨm (1 mM stock; #M7512; Thermo Fisher Scientific) and 5 µM CellROX Deep Red Reagent to assess oxidative stress levels (2.5 mM stock; #C10422; Thermo Fisher Scientific) for 45 min. The cells were then fixed with 4% methanol-free PFA, washed with PBS, and mounted with Ibidi mounting medium containing 4',6-diamidino-2-phenylindole (DAPI) prior to imaging.
The density of γ-H2AX, Rad51, ΔΨm, and oxidative stress in cancer cells was measured as described in [32], utilizing custom macros available as open access at Zenodo (https://zenodo.org/records/8387899) to obtain raw intensities and individual cell area.

DHODH R136C = target: T1, DHODH R136C (Homo sapiens, UniProt Q02127, R135C); test: In vitro DHODH enzyme activity assay; assay type: biochemical; conditions: 1 mM DHO
T1 construct: made in house
Procedure: (§1) The assays to determine the inhibition constants of inhibitors of the recombinant DHODH enzymes are described in [28, 29].
(§2) The IC50 values were determined by fitting the equation V = V max/(1 + (I/IC50)^h) to the assay data using SigmaPlot14 (Systat Software Inc.). In this equation, V represents the measured enzyme activity, while V max indicates the maximum enzyme activity reached. I denotes the inhibitor concentration, and h describes the slope of the fitted curve.

Δ29 DHODH (N-truncated) = target: T2, Δ29 DHODH (N-truncated) (Homo sapiens, UniProt Q02127); test: In vitro DHODH enzyme activity assay; assay type: biochemical; conditions: 1 mM DHO
T2 construct: N-terminal truncated form of human DHODH (Δ29), where the N-terminal transmembrane domain was removed; made in house
Procedure: as §1, §2

[4] = target: T3, recombinant human DHODH (full-length wild-type) (Homo sapiens, UniProt Q02127); test: In vitro DHODH enzyme activity assay; assay type: biochemical; conditions: for IC50: 0.1 mM QD, mean ± SD (n = 4–6); for Ki: assuming pure competitive inhibition
T3 construct: The generation of recombinant enzymes (full-length wild-type); made in house
Procedure: as §1, §2

colorectal cancer cells [5] = test: Clonogenic assay; assay type: cell-based, human
Procedure: Cancer cells (4 × 10^3) were cultured in 6-well plates in triplicate and treated with DMSO or NK-A 17E-233I (25 µM) for two weeks. Colonies were subsequently stained with a solution containing 0.5% crystal violet (#B21932.14; ThermoScientific) and 20% ethanol, followed by multiple washes with water. Plates were allowed to air dry overnight and were subsequently scanned using an Epson Perfection V850 Pro scanner (Kamera Express, Spain). The area of the wells occupied by cells was quantified utilizing the ImageJ plugin ColonyArea.

[6] = test system: human colorectal cancer cell lines; test: Cell viability assay (CellTiter-Glo); assay type: cell-based; conditions: dose-dependent; 48 h

T3 sequence (Q02127 whole entry): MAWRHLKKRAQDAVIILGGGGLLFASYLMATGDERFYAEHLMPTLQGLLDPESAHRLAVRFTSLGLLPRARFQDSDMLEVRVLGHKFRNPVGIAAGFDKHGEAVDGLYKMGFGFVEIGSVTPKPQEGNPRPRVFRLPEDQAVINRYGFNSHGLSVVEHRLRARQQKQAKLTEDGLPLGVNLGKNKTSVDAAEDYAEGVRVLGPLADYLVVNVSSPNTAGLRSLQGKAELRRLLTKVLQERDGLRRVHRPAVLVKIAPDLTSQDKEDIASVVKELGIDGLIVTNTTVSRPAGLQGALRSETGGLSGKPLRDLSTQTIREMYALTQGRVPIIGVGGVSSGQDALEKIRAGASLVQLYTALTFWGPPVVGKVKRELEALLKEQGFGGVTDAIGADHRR
T2 sequence (Q02127 29-395, stated change not applied): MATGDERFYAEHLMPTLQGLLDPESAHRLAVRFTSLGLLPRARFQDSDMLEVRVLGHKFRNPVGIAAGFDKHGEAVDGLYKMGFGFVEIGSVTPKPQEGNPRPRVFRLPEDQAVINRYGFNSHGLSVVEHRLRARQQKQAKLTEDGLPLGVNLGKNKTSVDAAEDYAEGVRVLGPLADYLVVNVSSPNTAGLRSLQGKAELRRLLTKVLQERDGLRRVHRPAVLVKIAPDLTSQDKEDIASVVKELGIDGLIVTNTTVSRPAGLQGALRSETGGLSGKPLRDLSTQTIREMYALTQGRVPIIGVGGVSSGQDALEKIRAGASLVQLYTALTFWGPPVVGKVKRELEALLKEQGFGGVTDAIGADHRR
T1 sequence (Q02127 whole entry R135C): as the sequence (Q02127 whole entry) above, with R135C counted along it

IC50 (DHODH R136C; mean ± SD (n = 3)): 48.6 ± 30.8 µM
average of the fitted slopes (DHODH R136C; ± SD): 0.6 ± 0.2
IC50 (Δ29 DHODH (N-truncated); mean ± SD (n = 3)): 99.1 ± 47.8 µM
average of the fitted slopes (Δ29 DHODH (N-truncated); ± SD): 1 ± 0.8
mode of inhibition with respect to DHO [4]: competitive inhibitor
IC50 ([4]; 0.1 mM DHO): 28.9 ± 14.5 µM
IC50 ([4]; 1 mM DHO): 98.3 ± 42.6 µM
fold increase in the IC50 value with increasing concentrations of DHO ([4]; 1 mM vs 0.1 mM DHO): 3.4 fold
Ki ([4]; derived from the IC50 at 0.1 mM DHO): 3.9 µM
Ki ([4]; derived from the IC50 at 1 mM DHO): 1.5 µM
Compound: COc1cc(C)c(Oc2cc(C)cc(O)c2O)c(O)c1 [NK-A 17E-233I]
speed of replication forks (CldU tracks) ([1]; 25 µM, 1 h): significantly reduced
rescue of replication fork speed by physiological uridine ([1]; 25 µM, uridine 10 µM): did not demonstrate any discernible rescue
rescue of DNA-damaging effects by excess uridine ([1]; 25 µM, uridine 200 µM): rescued the DNA-damaging effects
replication fork progression after washout (fork restart) ([1]; LS174T, 25 µM, 1 h then washout): continued to demonstrate a diminished progression rate
speed of replication forks (CldU tract length) ([1]; SW620, 25 µM, 1 h): significantly diminished
cytotoxic effects [2]: cytotoxic effects
ROS levels (colorectal cancer cells [3]; HCT116, 25 µM, 24 h): significantly decreased
ROS levels (colorectal cancer cells [3]; different cancer cell lines (HT-29), 25 µM): without significant effect
ability to form colonies (colorectal cancer cells [5]; 25 µM, two weeks): significantly diminished
combination with the ATR inhibitor VE-821 (colorectal cancer cells [5]; LS174T: Tx 4 µM, VE-821 0.5 µM, 14 days, HCT116): synergistic activity
viability [6]: reduced the viability
